According to US20260070945A1, “MACROCYCLIC IMMUNOMODULATORS” (Bristol-Myers Squibb Company, priority 2022, published 2026):
Where a SMILES comes first, the peptide text is derived from it. Bridges are numbered along the chain shown (N, C = ends). [ ]: non-standard residue; d: D form. The star is where a group is joined. ξ: configuration not given here. Phe(3-CF3) = N[C@@H](Cc1cccc(C(F)(F)F)c1)C(=O)O; Phe(4-COOH) = N[C@@H](Cc1ccc(C(=O)O)cc1)C(=O)O; Bip = N[C@@H](Cc1ccc(-c2ccccc2)cc1)C(=O)O; Phe(3-Me) = Cc1cccc(C[C@H](N)C(=O)O)c1; Val(3-OH) = CC(C)(O)[C@H](N)C(=O)O; Cha = N[C@@H](CC1CCCCC1)C(=O)O; Thr(3ξ) = CC(O)[C@H](N)C(=O)O; 12Ado = NCCCCCCCCCCCC(=O)O; Carboxymethyl = O=C(O)C*; NMeA = CN[C@@H](C)C(=O)O; Aun = NCCCCCCCCCCC(=O)O; Dab = NCC[C@H](N)C(=O)O; AEEA = NCCOCCOCC(=O)O

target: T1, PD-1/PD-L1 interaction (PE-labeled human PD-L1-Ig binding to Jurkat cell line over-expressing human PD-1) (Homo sapiens, UniProt Q15116); experiment: Jurkat-PD-1 Cell Binding High-Content Screening Assay (CBA); details: PE-labeled PD-L1-Ig 20 nM final, Jurkat-hPD-1 cells; read-out: Jurkat HPD1 PDL1 IC50
T1 construct: expressed in transfected cells; host or cells: Jurkat
T1 sequence (Q15116 25-288): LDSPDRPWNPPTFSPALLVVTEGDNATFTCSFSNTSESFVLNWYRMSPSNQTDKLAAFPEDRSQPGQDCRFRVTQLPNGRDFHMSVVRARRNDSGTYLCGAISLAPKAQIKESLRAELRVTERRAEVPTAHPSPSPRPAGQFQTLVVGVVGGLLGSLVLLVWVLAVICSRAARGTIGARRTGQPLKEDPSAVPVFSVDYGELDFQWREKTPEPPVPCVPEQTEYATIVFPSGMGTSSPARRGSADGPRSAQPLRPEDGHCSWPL
Method in brief: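 High-content imaging read-out of PE-PD-L1-Ig binding (20 nM final, 1 h) to Jurkat-hPD-1 cells, after 2 h compound exposure at 37 °C in DMEM with 10% FCS. Nuclei counterstained with Hoechst 33342 after paraformaldehyde fixation.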

SMILES	IC50
CC(=O)NCCCC[C@@H]1NC(=O)[C@H](C(C)(C)O)NC(=O)[C@H](CC2CCCCC2)NC(=O)[C@H](CCN)NC(=O)[C@@H](CC(C)C)NC(=O)[C@H](C)N(C)C(=O)[C@H](CCC(N)=O)NC(=O)[C@H](Cc2ccc(-c3ccccc3)cc2)NC(=O)[C@H](Cc2ccc(C(=O)O)cc2)NC(=O)[C@H](Cc2cccc(C(F)(F)F)c2)NC(=O)[C@H](CC(=O)O)NC(=O)[C@H](Cc2ccc(OCC(=O)O)cc2)NC(=O)[C@H](Cc2ccc(OCC(=O)O)cc2)NC(=O)CSC[C@@H](C(=O)N[C@@H](CCN)C(=O)NCCCCCCCCCCC(=O)O)NC1=O [Example 2564] ({CH2CO}-Y(Carboxymethyl)Y(Carboxymethyl)D[Phe(3-CF3)][Phe(4-COOH)][Bip]Q[NMeA][dL][Dab][Cha][Val(3-OH)]K(Ac)C[Dab][Aun]-OH; thioether N-14)	1.1 nM
Cc1cccc(C[C@@H]2NC(=O)[C@H](CC(=O)O)NC(=O)[C@H](Cc3ccc(C(=O)O)cc3)NC(=O)[C@H](C(C)O)NC(=O)CSC[C@@H](C(=O)N[C@@H](CCN)C(=O)NCCOCCOCC(=O)NCCOCCOCC(=O)NCCCCCCCCCCC(=O)O)NC(=O)[C@H](CCC(=O)O)NC(=O)[C@H](C(C)O)NC(=O)[C@H](CC3CCCCC3)NC(=O)[C@H](CCN)NC(=O)[C@@H](CC(C)C)NC(=O)[C@H](C)N(C)C(=O)[C@H](Cc3ccc(C(=O)O)cc3)NC(=O)[C@H](Cc3ccc(-c4ccccc4)cc3)NC(=O)[C@H](Cc3ccc(C(=O)O)cc3)NC2=O)c1 (stereo partly drawn) [Example 2528] ({CH2CO}-[Thr(3ξ)][Phe(4-COOH)]D[Phe(3-Me)][Phe(4-COOH)][Bip][Phe(4-COOH)][NMeA][dL][Dab][Cha][Thr(3ξ)]EC[Dab][AEEA][AEEA][Aun]-OH; thioether N-14)	8.6 nM
Cc1cccc(C[C@@H]2NC(=O)[C@H](CC(=O)O)NC(=O)[C@H](Cc3ccc(OCC(=O)O)cc3)NC(=O)[C@H](CCN)NC(=O)CSC[C@@H](C(=O)N[C@@H](CCN)C(=O)NCCOCCOCC(=O)NCCOCCOCC(=O)NCCCCCCCCCCC(=O)O)NC(=O)[C@H](Cc3cnc[nH]3)NC(=O)[C@H](C(C)(C)O)NC(=O)[C@H](CC3CCCCC3)NC(=O)[C@H](CCN)NC(=O)[C@@H](CC(C)C)NC(=O)[C@H](C)N(C)C(=O)[C@H](Cc3ccc(OCC(=O)O)cc3)NC(=O)[C@H](Cc3ccc(-c4ccccc4)cc3)NC(=O)[C@H](Cc3ccc(OCC(=O)O)cc3)NC2=O)c1 [Example 2520] ({CH2CO}-[Dab]Y(Carboxymethyl)D[Phe(3-Me)]Y(Carboxymethyl)[Bip]Y(Carboxymethyl)[NMeA][dL][Dab][Cha][Val(3-OH)]HC[Dab][AEEA][AEEA][Aun]-OH; thioether N-14)	8 nM
Cc1cccc(C[C@@H]2NC(=O)[C@H](CC(=O)O)NC(=O)[C@H](Cc3ccc(OCC(=O)O)cc3)NC(=O)[C@H]([C@@H](C)O)NC(=O)CSC[C@@H](C(=O)N[C@@H](CCN)C(=O)NCCOCCOCC(=O)NCCCCCCCCCCCC(=O)O)NC(=O)[C@H](CCC(=O)O)NC(=O)[C@H](C(C)C)NC(=O)[C@H](CC3CCCCC3)NC(=O)[C@H](CCN)NC(=O)[C@@H](CC(C)C)NC(=O)[C@H](C)N(C)C(=O)[C@H](Cc3ccc(O)cc3)NC(=O)[C@H](Cc3ccc(-c4ccccc4)cc3)NC(=O)[C@H](Cc3ccc(OCC(=O)O)cc3)NC2=O)c1 [Example 2665] ({CH2CO}-TY(Carboxymethyl)D[Phe(3-Me)]Y(Carboxymethyl)[Bip]Y[NMeA][dL][Dab][Cha]VEC[Dab][AEEA][12Ado]-OH; thioether N-14)	1.2 nM
